{"source": "patent US20260216065A1", "about": "“PHARMACEUTICAL COMPOSITIONS FOR NASAL DELIVERY” (Therakind Limited, priority 2023, published 2026)", "origin": "cited, not measured here", "conditions": "room temperature (25° C.)"}
{"compound": "Cc1nccn1CC1CCc2c(c3ccccc3n2C)C1=O", "note": "(racemic) [ondansetron, (RS)-9-Methyl-3-[(2-methyl-1H-imidazol-1-yl)methyl]-2,3-dihydro-1H-carbazol-4(9H)-one]", "values": [{"measurement": "time for which nasal spray solutions are stable", "result": 48, "unit": "h"}]}
